Assay results as given in paper PMC8053501 (Diabetes, Metabolic Syndrome and Obesity: Targets and …, 2021).
Where two headings read alike, the source gives them in different places. Values belong to the molecule of their own block, whether it stands above or below them.

Legend:
[1] = normal mice, oral gavage, 3mg/kg
[2] = test system: diabetes mellitus patients; assay: Acute kidney injury; assay type: in vivo, human; details: for Association with AKI, Unadjusted (95% CI) / Association with AKI, Adjusted (95% CI): metformin as reference; for Association with AKI, Adjusted (95% CI): multivariate; for Events During the 90 days (AKI): primary endpoint, first 90 days, patients above 55 years; for Total endpoint (AKI events): primary plus secondary endpoint; for Events at secondary end (AKI): secondary endpoint, after 90 days of hospital admission; for Total Percent (incidence rate of AKI at the end of the study): share of the 4966 total outcomes
[3] = in vivo; details: male, ICR, mouse, po; for Cmax / half-life: oral gavage; for half-life: t1/2, mouse
[4] = Endpoint Diagnosis with 1047 Outcome
[5] = Secondary Diagnosis with 3919 Outcomes

Drug concentration, time course ([1]; Kidney, 0h): 0
Drug concentration, time course ([1]; Kidney, 3h): 16,700
Drug concentration, time course ([1]; Kidney, 6h): 14,500
Drug concentration, time course ([1]; Kidney, 9h): 8000
Drug concentration, time course ([1]; Kidney, 12h): 4500
Drug concentration, time course ([1]; Kidney, 15h): 3000
Drug concentration, time course ([1]; Kidney, 18h): 1500
Drug concentration, time course ([1]; Kidney, 21h): 1000
Drug concentration, time course ([1]; Kidney, 24h): 850
Drug concentration, time course ([1]; Liver, 0h): 0
Drug concentration, time course ([1]; Liver, 3h): 7500
Drug concentration, time course ([1]; Liver, 6h): 6000
Drug concentration, time course ([1]; Liver, 9h): 1200
Drug concentration, time course ([1]; Liver, 12h): 300
Drug concentration, time course ([1]; Liver, 15h): 50
Drug concentration, time course ([1]; Liver, 18h): 0
Drug concentration, time course ([1]; Liver, 21h): 0
Drug concentration, time course ([1]; Liver, 24h): 0
Drug concentration, time course ([1]; Plasma, 0h): 0
Drug concentration, time course ([1]; Plasma, 3h): 300
Drug concentration, time course ([1]; Plasma, 6h): 250
Drug concentration, time course ([1]; Plasma, 9h): 30
Drug concentration, time course ([1]; Plasma, 12h): 0
Drug concentration, time course ([1]; Plasma, 15h): 0
Drug concentration, time course ([1]; Plasma, 18h): 0
Drug concentration, time course ([1]; Plasma, 21h): 0
Drug concentration, time course ([1]; Plasma, 24h): 0
Tmax [3]: 0.5 h
Tmax ([3]; 3 mg/kg): 0.5 h
Cmax ([3]; 3 mg/kg, Kidney): 4140 ng/mL
Cmax ([3]; 3 mg/kg, Liver): 3040 ng/mL
Cmax ([3]; 3 mg/kg, Plasma): 975 ng/mL
half-life ([3]; 3 mg/kg, Kidney): 2.3 h
half-life ([3]; 3 mg/kg, Liver): 1.5 h
half-life ([3]; 3 mg/kg, Plasma): 1.6 h
Structure (SMILES): OC[C@H]1O[C@@H](c2ccc(F)c(Cc3cc4ccccc4s3)c2)[C@H](O)[C@@H](O)[C@@H]1O [Ipragliflozin, ipragliflozin]
Association with AKI, Unadjusted (95% CI) [2, 4]: 0.78 (0.61–1.08)
Association with AKI, Adjusted (95% CI) [2, 4]: 0.86 (0.69–1.31)
Association with AKI, Unadjusted (95% CI) [2, 5]: 0.84 (0.69–1.16)
Association with AKI, Adjusted (95% CI) [2, 5]: 0.95 (0.62–1.45)
Events During the 90 days (AKI) [2]: 58
Total endpoint (AKI events) [2]: 269
Events at secondary end (AKI) [2]: 211
Total Percent (incidence rate of AKI at the end of the study) [2]: 5.42%

Drug concentration, time course ([1]; Kidney, 0h): 0
Drug concentration, time course ([1]; Kidney, 3h): 1800
Drug concentration, time course ([1]; Kidney, 6h): 1200
Drug concentration, time course ([1]; Kidney, 9h): 550
Drug concentration, time course ([1]; Kidney, 12h): 100
Drug concentration, time course ([1]; Kidney, 15h): 0
Drug concentration, time course ([1]; Kidney, 18h): 0
Drug concentration, time course ([1]; Kidney, 21h): 0
Drug concentration, time course ([1]; Kidney, 24h): 0
Drug concentration, time course ([1]; Liver, 0h): 0
Drug concentration, time course ([1]; Liver, 3h): 1100
Drug concentration, time course ([1]; Liver, 6h): 850
Drug concentration, time course ([1]; Liver, 9h): 400
Drug concentration, time course ([1]; Liver, 12h): 50
Drug concentration, time course ([1]; Liver, 15h): 0
Drug concentration, time course ([1]; Liver, 18h): 0
Drug concentration, time course ([1]; Liver, 21h): 0
Drug concentration, time course ([1]; Liver, 24h): 0
Drug concentration, time course ([1]; Plasma, 0h): 0
Drug concentration, time course ([1]; Plasma, 3h): 500
Drug concentration, time course ([1]; Plasma, 6h): 450
Drug concentration, time course ([1]; Plasma, 9h): 200
Drug concentration, time course ([1]; Plasma, 12h): 0
Drug concentration, time course ([1]; Plasma, 15h): 0
Drug concentration, time course ([1]; Plasma, 18h): 0
Drug concentration, time course ([1]; Plasma, 21h): 0
Drug concentration, time course ([1]; Plasma, 24h): 0
Tmax [3]: 1 h
Tmax ([3]; 3 mg/kg): 1 h
Cmax ([3]; 3 mg/kg, Kidney): 1740 ng/mL
Cmax ([3]; 3 mg/kg, Liver): 1150 ng/mL
Cmax ([3]; 3 mg/kg, Plasma): 412 ng/mL
half-life ([3]; 3 mg/kg, Kidney): 2.1 h
half-life ([3]; 3 mg/kg, Liver): 2.2 h
half-life ([3]; 3 mg/kg, Plasma): 1.8 h
Structure (SMILES): OC[C@H]1O[C@@H](c2ccc(Cl)c(Cc3ccc(O[C@H]4CCOC4)cc3)c2)[C@H](O)[C@@H](O)[C@@H]1O [Jardiance]
Association with AKI, Unadjusted (95% CI) [2, 4]: 0.87 (0.69–1.12)
Association with AKI, Adjusted (95% CI) [2, 4]: 0.76 (0.58–1.18)
Association with AKI, Unadjusted (95% CI) [2, 5]: 0.83 (0.68–1.14)
Association with AKI, Adjusted (95% CI) [2, 5]: 0.85 (0.67–1.18)
Events During the 90 days (AKI) [2]: 57
Total endpoint (AKI events) [2]: 277
Events at secondary end (AKI) [2]: 220
Total Percent (incidence rate of AKI at the end of the study) [2]: 5.58%

Drug concentration, time course ([1]; Kidney, 0h): 0
Drug concentration, time course ([1]; Kidney, 3h): 18,500
Drug concentration, time course ([1]; Kidney, 6h): 12,800
Drug concentration, time course ([1]; Kidney, 9h): 9500
Drug concentration, time course ([1]; Kidney, 12h): 5400
Drug concentration, time course ([1]; Kidney, 15h): 2500
Drug concentration, time course ([1]; Kidney, 18h): 500
Drug concentration, time course ([1]; Kidney, 21h): 0
Drug concentration, time course ([1]; Kidney, 24h): 0
Drug concentration, time course ([1]; Liver, 0h): 0
Drug concentration, time course ([1]; Liver, 3h): 7500
Drug concentration, time course ([1]; Liver, 6h): 6000
Drug concentration, time course ([1]; Liver, 9h): 1200
Drug concentration, time course ([1]; Liver, 12h): 300
Drug concentration, time course ([1]; Liver, 15h): 50
Drug concentration, time course ([1]; Liver, 18h): 0
Drug concentration, time course ([1]; Liver, 21h): 0
Drug concentration, time course ([1]; Liver, 24h): 0
Drug concentration, time course ([1]; Plasma, 0h): 0
Drug concentration, time course ([1]; Plasma, 3h): 450
Drug concentration, time course ([1]; Plasma, 6h): 310
Drug concentration, time course ([1]; Plasma, 9h): 50
Drug concentration, time course ([1]; Plasma, 12h): 0
Drug concentration, time course ([1]; Plasma, 15h): 0
Drug concentration, time course ([1]; Plasma, 18h): 0
Drug concentration, time course ([1]; Plasma, 21h): 0
Drug concentration, time course ([1]; Plasma, 24h): 0
Tmax [3]: 1 h
Tmax ([3]; 3 mg/kg): 1 h
Cmax ([3]; 3 mg/kg, Kidney): 6440 ng/mL
Cmax ([3]; 3 mg/kg, Liver): 5050 ng/mL
Cmax ([3]; 3 mg/kg, Plasma): 578 ng/mL
half-life ([3]; 3 mg/kg, Kidney): 3.7 h
half-life ([3]; 3 mg/kg, Liver): 2.8 h
half-life ([3]; 3 mg/kg, Plasma): 2.6 h
Structure (SMILES): CC#CCn1c(N2CCC[C@@H](N)C2)nc2c1c(=O)n(Cc1nc(C)c3ccccc3n1)c(=O)n2C [Linagliptin, linagliptin]
Association with AKI, Unadjusted (95% CI) [2, 4]: 0.97 (0.68–1.32)
Association with AKI, Adjusted (95% CI) [2, 4]: 0.86 (0.72–1.46)
Association with AKI, Unadjusted (95% CI) [2, 5]: 0.87 (0.72–1.21)
Association with AKI, Adjusted (95% CI) [2, 5]: 1.23 (0.73–1.65)
Events During the 90 days (AKI) [2]: 56
Total endpoint (AKI events) [2]: 284
Events at secondary end (AKI) [2]: 228
Total Percent (incidence rate of AKI at the end of the study) [2]: 5.72%

Drug concentration, time course ([1]; Kidney, 0h): 0
Drug concentration, time course ([1]; Kidney, 3h): 4500
Drug concentration, time course ([1]; Kidney, 6h): 3950
Drug concentration, time course ([1]; Kidney, 9h): 1650
Drug concentration, time course ([1]; Kidney, 12h): 100
Drug concentration, time course ([1]; Kidney, 15h): 25
Drug concentration, time course ([1]; Kidney, 18h): 0
Drug concentration, time course ([1]; Kidney, 21h): 0
Drug concentration, time course ([1]; Kidney, 24h): 0
Drug concentration, time course ([1]; Liver, 0h): 0
Drug concentration, time course ([1]; Liver, 3h): 8300
Drug concentration, time course ([1]; Liver, 6h): 4800
Drug concentration, time course ([1]; Liver, 9h): 2900
Drug concentration, time course ([1]; Liver, 12h): 300
Drug concentration, time course ([1]; Liver, 15h): 50
Drug concentration, time course ([1]; Liver, 18h): 0
Drug concentration, time course ([1]; Liver, 21h): 0
Drug concentration, time course ([1]; Liver, 24h): 0
Drug concentration, time course ([1]; Plasma, 0h): 0
Drug concentration, time course ([1]; Plasma, 3h): 7500
Drug concentration, time course ([1]; Plasma, 6h): 3000
Drug concentration, time course ([1]; Plasma, 9h): 1200
Drug concentration, time course ([1]; Plasma, 12h): 600
Drug concentration, time course ([1]; Plasma, 15h): 200
Drug concentration, time course ([1]; Plasma, 18h): 0
Drug concentration, time course ([1]; Plasma, 21h): 0
Drug concentration, time course ([1]; Plasma, 24h): 0
Tmax [3]: 0.5 h
Tmax ([3]; 3 mg/kg): 0.5 h
Cmax ([3]; 3 mg/kg, Kidney): 5870 ng/mL
Cmax ([3]; 3 mg/kg, Liver): 5030 ng/mL
Cmax ([3]; 3 mg/kg, Plasma): 765 ng/mL
Structure (SMILES): N#C[C@@H]1CCCN1C(=O)CNC12CC3CC(CC(O)(C3)C1)C2 [Vildagliptin, vildagliptin]
Association with AKI, Unadjusted (95% CI) [2, 4]: 1.23 (0.97–1.32)
Association with AKI, Adjusted (95% CI) [2, 4]: 1.18 (0.92–1.35)
Association with AKI, Unadjusted (95% CI) [2, 5]: 1.20 (0.72–1.38)
Association with AKI, Adjusted (95% CI) [2, 5]: 1.07 (0.95–1.45)
Events During the 90 days (AKI) [2]: 79
Total endpoint (AKI events) [2]: 316
Events at secondary end (AKI) [2]: 237
Total Percent (incidence rate of AKI at the end of the study) [2]: 6.36%
